# How the values were obtained:
# Assay type in all cases: biochemical
# [1] = molecular target: platelet derived growth factor-receptor B (PDGFRB) (Homo sapiens, UniProt P09619); assay: cell-free recombinant human kinase assay
# [2] = molecular target: platelet derived growth factor-receptor A (PDGFRA) (Homo sapiens, UniProt P16234); assay: cell-free recombinant human kinase assay
# [3] = molecular target: KIT (Homo sapiens, UniProt P10721); assay: cell-free recombinant human kinase assay (also KINOMEscan binding)
# Sequence of KIT (P10721 26-976): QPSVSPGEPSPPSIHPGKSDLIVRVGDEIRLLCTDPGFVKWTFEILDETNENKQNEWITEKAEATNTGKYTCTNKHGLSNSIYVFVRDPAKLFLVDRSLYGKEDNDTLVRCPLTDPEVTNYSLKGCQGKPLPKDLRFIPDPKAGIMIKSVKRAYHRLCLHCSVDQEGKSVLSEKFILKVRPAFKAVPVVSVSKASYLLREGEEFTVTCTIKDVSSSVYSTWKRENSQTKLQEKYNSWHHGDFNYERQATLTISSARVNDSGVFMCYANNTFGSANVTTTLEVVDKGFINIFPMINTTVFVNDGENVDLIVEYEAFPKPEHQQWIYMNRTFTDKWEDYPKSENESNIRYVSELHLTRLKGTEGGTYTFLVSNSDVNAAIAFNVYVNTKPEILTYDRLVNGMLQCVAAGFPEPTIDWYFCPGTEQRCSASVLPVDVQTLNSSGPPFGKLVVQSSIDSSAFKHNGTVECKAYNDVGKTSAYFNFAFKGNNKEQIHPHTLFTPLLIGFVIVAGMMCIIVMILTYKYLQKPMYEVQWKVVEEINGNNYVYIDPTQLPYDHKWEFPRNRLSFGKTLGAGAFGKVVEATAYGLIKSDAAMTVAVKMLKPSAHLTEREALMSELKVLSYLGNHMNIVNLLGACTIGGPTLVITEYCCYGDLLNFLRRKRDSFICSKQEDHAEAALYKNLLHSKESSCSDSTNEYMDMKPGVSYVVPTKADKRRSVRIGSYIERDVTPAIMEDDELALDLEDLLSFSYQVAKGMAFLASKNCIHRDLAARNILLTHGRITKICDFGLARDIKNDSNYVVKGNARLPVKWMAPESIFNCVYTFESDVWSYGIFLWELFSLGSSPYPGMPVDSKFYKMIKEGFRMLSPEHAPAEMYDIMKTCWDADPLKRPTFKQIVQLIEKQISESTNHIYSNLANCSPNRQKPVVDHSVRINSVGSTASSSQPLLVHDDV
# Sequence of platelet derived growth factor-receptor A (PDGFRA) (P16234 24-1089): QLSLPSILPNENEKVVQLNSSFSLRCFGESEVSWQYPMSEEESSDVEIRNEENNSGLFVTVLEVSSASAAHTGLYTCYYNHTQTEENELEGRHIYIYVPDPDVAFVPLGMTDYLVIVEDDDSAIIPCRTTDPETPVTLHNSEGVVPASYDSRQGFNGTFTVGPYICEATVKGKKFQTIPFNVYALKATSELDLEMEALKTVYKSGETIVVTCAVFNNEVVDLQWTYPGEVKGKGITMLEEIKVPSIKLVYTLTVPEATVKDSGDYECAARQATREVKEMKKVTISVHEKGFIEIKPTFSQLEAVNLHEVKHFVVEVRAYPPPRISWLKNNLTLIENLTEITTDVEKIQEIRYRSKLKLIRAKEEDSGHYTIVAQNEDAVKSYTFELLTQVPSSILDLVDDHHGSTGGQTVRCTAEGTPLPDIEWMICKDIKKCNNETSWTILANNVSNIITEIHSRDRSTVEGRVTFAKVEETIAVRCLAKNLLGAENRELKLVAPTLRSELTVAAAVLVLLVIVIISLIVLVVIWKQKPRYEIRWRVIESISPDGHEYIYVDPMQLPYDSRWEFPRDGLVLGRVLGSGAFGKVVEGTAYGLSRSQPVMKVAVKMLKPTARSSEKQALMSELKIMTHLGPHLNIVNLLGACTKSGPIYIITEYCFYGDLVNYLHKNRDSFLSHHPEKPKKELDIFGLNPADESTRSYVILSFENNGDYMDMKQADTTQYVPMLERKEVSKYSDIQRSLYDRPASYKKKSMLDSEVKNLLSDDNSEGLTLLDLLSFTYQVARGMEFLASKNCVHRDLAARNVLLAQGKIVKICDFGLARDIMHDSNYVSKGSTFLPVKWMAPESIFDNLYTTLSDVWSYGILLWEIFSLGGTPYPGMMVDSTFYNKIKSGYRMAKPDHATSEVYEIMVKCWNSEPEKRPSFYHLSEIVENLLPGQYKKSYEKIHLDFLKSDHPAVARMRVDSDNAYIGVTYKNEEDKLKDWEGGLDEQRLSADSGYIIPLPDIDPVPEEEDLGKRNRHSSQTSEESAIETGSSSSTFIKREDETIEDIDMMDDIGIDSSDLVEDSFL
# Sequence of platelet derived growth factor-receptor B (PDGFRB) (P09619 33-1106): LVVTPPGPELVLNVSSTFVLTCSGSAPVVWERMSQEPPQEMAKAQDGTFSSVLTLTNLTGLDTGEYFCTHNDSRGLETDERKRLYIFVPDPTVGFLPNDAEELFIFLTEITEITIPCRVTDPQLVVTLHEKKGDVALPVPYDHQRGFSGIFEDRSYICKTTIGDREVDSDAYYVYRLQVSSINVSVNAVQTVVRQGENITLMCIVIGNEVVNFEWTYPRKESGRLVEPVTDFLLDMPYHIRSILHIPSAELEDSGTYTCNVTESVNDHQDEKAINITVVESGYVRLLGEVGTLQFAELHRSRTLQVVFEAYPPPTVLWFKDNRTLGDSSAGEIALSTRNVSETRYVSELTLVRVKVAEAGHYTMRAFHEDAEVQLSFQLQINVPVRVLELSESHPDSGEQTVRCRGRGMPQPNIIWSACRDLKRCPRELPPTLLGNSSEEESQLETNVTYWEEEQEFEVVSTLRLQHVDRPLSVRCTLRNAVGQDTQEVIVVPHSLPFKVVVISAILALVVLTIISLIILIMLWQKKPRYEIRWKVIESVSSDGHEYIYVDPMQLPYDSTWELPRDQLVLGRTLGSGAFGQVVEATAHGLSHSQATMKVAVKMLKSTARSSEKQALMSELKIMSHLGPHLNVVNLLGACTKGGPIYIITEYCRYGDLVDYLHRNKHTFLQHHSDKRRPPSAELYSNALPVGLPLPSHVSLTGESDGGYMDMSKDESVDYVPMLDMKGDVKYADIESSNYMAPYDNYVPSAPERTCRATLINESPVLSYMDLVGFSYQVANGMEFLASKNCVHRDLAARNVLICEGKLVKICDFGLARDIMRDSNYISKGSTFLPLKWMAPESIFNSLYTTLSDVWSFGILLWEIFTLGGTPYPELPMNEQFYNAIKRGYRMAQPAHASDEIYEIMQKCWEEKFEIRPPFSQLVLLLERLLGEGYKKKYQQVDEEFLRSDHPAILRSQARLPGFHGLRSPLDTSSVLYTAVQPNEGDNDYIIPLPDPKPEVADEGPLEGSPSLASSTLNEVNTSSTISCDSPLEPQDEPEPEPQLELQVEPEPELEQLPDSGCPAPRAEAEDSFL
substance,measurement,setting,value
MOD000001,IC50,[1],0.218 µM
same,IC50,[2],1.4 µM
same,IC50,[3],0.002 µM

# Reference: publication PMC11101940, “A highly selective KIT inhibitor MOD000001 suppresses IgE-mediated mast cell activation” (The Journal of Allergy and Clinical Immunology: Global, 2024)
